test: Human HepG2 cell viability assay in 384 well format; assay type: toxicity, cell-based; design: dose 125 nL, time 70.5 hour; concentration not given beside the values; details: HepG2 cells, read-out: Inhibition

Row | Compound | cytotoxicity at 70.5 h
1 | CN(Cc1ccc(Cl)s1)C(=O)CN1CC(n2cccn2)C1 | -14.6%
2 | O=C(CCC1CCCO1)NCc1ccccc1Cn1cncn1 (configuration not stated) | -9.42%
3 | COC(=O)CC(NC(=O)c1cc(OC)c2c(c1)OCCO2)c1cccs1 (configuration not stated) | -9.89%
4 | Cc1nccc(-c2cccc(-c3ccn(CC4CCNC4)n3)c2)n1 (configuration not stated) | -3.45%
5 | Cc1cccnc1CN(C)CC1(O)CCCN(CC2CCCCC2)C1=O (configuration not stated) | 18.2%
6 | CN(Cc1ccc(-n2cccn2)cc1)Cc1ncc[nH]1 | -9.75%
7 | CSCCCN1CCCC(Cn2ccnc2)C1 (configuration not stated) | -11.5%
8 | CC(C)(C)c1ncc(C(=O)NCCNC(=O)c2ccco2)s1 | -6.05%
9 | COc1ccc(CN(C(=O)CCC(C)C)c2cnn(C)c2)c(OC)c1 | -4.57%
10 | Cc1cccc(C(C(=O)N(C)Cc2ccon2)N(C)C)c1 (configuration not stated) | -0.0384%
11 | CN(C)CC1CSCCCN1C(=O)c1ccc(-n2cccc2)cc1 (configuration not stated) | -4.81%
12 | CC(C)N1CCC(NC(=O)NCc2cccnc2)C1 (configuration not stated) | -1.38%
13 | CC(=O)N1CC(c2n[nH]c3ncccc23)C1 | 28.9%
14 | CC(=O)N1CCSCC1c1ccc(C)o1 (configuration not stated) | -8.59%
15 | Cc1ccc(S(=O)(=O)NC(=O)CCc2cscn2)cc1Cl | 25.6%
16 | COCCNS(=O)(=O)c1ccc2c(c1)CCN(C(=O)c1cncn1C)C2 | -5.18%
17 | NC(=O)C1CN(C(=O)Nc2ccccc2SC2CCCC2)CCO1 (configuration not stated) | -3.34%
18 | COC(=O)c1ccc(CNC(=O)Nc2ccc(=O)n(C)c2)cc1 | -2.19%
19 | CCCSCC(=O)Nc1ncn(CC(=O)N2CCCCCC2)n1 | -1.09%
20 | Cc1ccc(C)c(C(=O)N2CCN(C(=O)Cc3ccccn3)CC2)c1 | -8.87%
21 | CN1CC2(CCN(C(=O)c3ccc4c(=O)n(C)cnc4c3)CC2)CC1=O | -6.3%

Row | Compound | cytotoxicity at 70.5 h
22 | CCn1cncc1-c1nc2c([nH]1)CC(C)(C)CNC2=O | -3.18%
23 | O=S(=O)(C1CC1)N1CCc2ncnc(-c3ccc(F)cc3)c2CC1 | 0.906%
24 | CCN(CC)c1ncnc2c(C)nn(CC)c12 | -0.883%
25 | CC(NC(=O)c1ccc2c(c1)COC2)c1cccc(N2CCOC2=O)c1 (configuration not stated) | -0.257%
26 | CCNC(=O)[C@@H]1C[C@@H](NC(=O)c2cccn2C)CN1CCCSC | -6.56%
27 | NC(=O)CCn1cc(CNCCCc2ccncc2)c2ccccc21 | -3.77%
28 | CNC(=O)[C@H]1C[C@@H]2CN(C(=O)c3occc3C)C[C@@H]2N1S(C)(=O)=O | -5.67%
29 | CCOC(=O)N1CC(C)=C(C)CN1C(=O)Nc1ccc(Cl)c(Cl)c1 | 6.17%
30 | Cc1ccoc1C(=O)N1CCOC2(CCCC2)C1 | -2.84%
31 | Cc1cc2n(n1)CC(CNCc1ccc(-n3cccn3)nc1)CN2 (configuration not stated) | 3.95%
32 | Cn1cc(NC(=O)c2cccc(-n3cnnn3)c2)cn1 | -13.6%
33 | Cc1nccn1C1CCCN(C(=O)c2ccc(-n3cccn3)nc2)C1 (configuration not stated) | 0.896%
34 | CCN(c1ccsc1C(=O)N1CCCCC1)S(=O)(=O)c1ccccc1 | -11.9%
35 | Cc1nc(CN2CCCC(NCc3c(C)nc4sccn34)C2)no1 (configuration not stated) | 1.63%
36 | O=c1[nH]c2ccccc2c(=O)n1Cc1nnnn1C1CC1 | 2.86%
37 | Cc1cnccc1CN1CC[C@@](C)(O)[C@H](Oc2cccc(F)c2)C1 | -1.49%
38 | Cc1ccc(CN(C)C(=O)NCC(C)(C)S(C)(=O)=O)s1 | -2.7%
39 | Cc1noc(C)c1CNC(=O)N1CCC(Cc2cnn(C)c2)C1 (configuration not stated) | -3.98%
40 | Nc1nc(NCCc2[nH]nc3c2CCCC3)cc(N2CCOCC2)n1 | -6.18%
41 | Cc1cccc(C(=O)N2CC(=O)N(c3ccccc3Cl)CC2C)n1 (configuration not stated) | 49.8%
42 | COc1cc(CNCc2c(C)nn(CC(C)C)c2N(C)C)ccn1 | 27.3%

Row | Compound | cytotoxicity at 70.5 h
43 | NC(=O)N1CCCC(C(=O)N2CCN(c3nsc4ccccc34)CC2)C1 (configuration not stated) | -3.95%
44 | COc1ccc(CNC(Cn2cncn2)c2ccccc2)cc1O (configuration not stated) | -0.077%
45 | Cc1nc(-c2nnc[nH]2)sc1C(=O)N(Cc1cccnc1)C1CC1 | 9.64%
46 | Cc1nc(C)n(CC2CCCN(c3ncnc4[nH]ccc34)C2)n1 (configuration not stated) | 3.27%
47 | CC(C)C(=O)N1CCN(C(=O)c2cscn2)[C@H]2CS(=O)(=O)C[C@H]21 | -2.25%
48 | CCN1C(=O)CCC12CCN(C(=O)c1ccco1)CC2 | -11.8%
49 | O=C1CSC(c2ccccc2)c2c(n(C3CCOCC3)[nH]c2=O)N1 (configuration not stated) | -23%
50 | COCCC(=O)N1CCC(Nc2ncc(Br)cn2)CC1 | -0.761%
51 | CCC1CCCN(S(=O)(=O)c2cnc3onc(C)c3c2)C1 (configuration not stated) | -4.44%
52 | CN(C)c1ncccc1CNC(=O)N(Cc1ccccc1F)C1CC1 | -4.47%
53 | CCc1nn(C)c(Cl)c1CN1C[C@@H](NC(=O)N(C)C)[C@H](C(C)C)C1 | -5.68%
54 | COCc1ccc(CNc2cncc(-n3cccn3)n2)cc1 | -9.14%
55 | O=C(CN1CCNCC1)N1CC[C@@H](c2ccc3ccccc3c2)[C@H](O)C1 | -6.87%
56 | CCCn1ncc(C(=O)N(C)Cc2n[nH]c3c2CCC3)c1C | -11.7%
57 | COCCN1CCN(CCS(=O)(=O)C(F)(F)F)CC1C (configuration not stated) | -6.2%
58 | CC(C)c1cc(C(=O)NCC2(C(N)=O)CCOCC2)nn1C(C)(C)C | -4.75%
59 | CCN(CC)C(=O)Cn1cc(C(=O)NCCc2nc(C)c(C)s2)nn1 | -2.44%
60 | O=C(Nc1ccccc1OC1CCOC1)c1ccon1 (configuration not stated) | -1.12%
61 | c1cncc(NCCNC2CSCCSC2)c1 | 5.88%
62 | N#Cc1ccsc1NC(=O)CN1CCOC(Cn2cccn2)C1 (configuration not stated) | 11%
63 | CN(C)c1nccc(C2CN(C(=O)CO)C2)n1 | -4.15%

Row | Compound | cytotoxicity at 70.5 h
64 | CC(C)c1nccc(-c2nccn2CCS(C)(=O)=O)n1 | -16.1%
65 | CCOc1ncccc1NC(=O)NC1CCN(S(C)(=O)=O)CC1 | 20.6%
66 | CN(CCn1cccn1)c1cc(C(F)(F)F)nc(-c2cccnc2)n1 | -4.93%
67 | CCC1=NN2C(=N)/C(=C/c3cccc(Cl)c3)C(=O)N=C2S1 | -5.39%
68 | CN1CCN(C(=O)c2cccc(S(=O)(=O)NCC3(C)COC3)c2)CC1 | -9.16%
69 | CCC(C)S(=O)(=O)N1CCc2nc(C3CCNCC3)ncc2C1 (configuration not stated) | -0.105%
70 | CCc1nnsc1C(=O)N(C)Cc1ccc(Br)o1 | -2.39%
71 | Fc1ccccc1CN1CCCC2(CCN(c3ncccn3)CC2)C1 | -3.46%
72 | CCCN(CCC)C(=O)Cn1c(SC)nc2ccsc2c1=O | -0.333%
73 | CCc1ncc(CN2CCc3nc4sc(C)cc4c(=O)n3CC2)cn1 | 17.6%
74 | Cc1nc(C)n(CC2CCCN2Cc2coc(-c3cccs3)n2)n1 (configuration not stated) | -115%
75 | NC(=O)CC1CCN(c2ncnc3cccc(F)c23)CC1 | -3.61%
76 | Cc1nc(CCNC(=O)NC2CCCN(c3ncccn3)C2)cs1 (configuration not stated) | 23.9%
77 | CC(=O)NCCc1ccc(S(=O)(=O)N(C)C(C)C(C)(C)C)s1 (configuration not stated) | -9.01%
78 | Cc1c(CNC(=O)C2CCCCCN2C)oc2ccccc12 (configuration not stated) | -0.804%
79 | O=C(C1CCCOC1)N1CCN(CC(F)(F)F)c2ccccc21 (configuration not stated) | -1.7%
80 | CC(=O)c1nn(-c2ccccc2Cl)c(C)c1C(C)=O | -10.3%
81 | Cc1cc(CN2CCc3nc(N4CCOCC4)nc(O)c3CC2)c(C)s1 | -0.651%
82 | Cc1cnn(CCNCCCOc2ccc(C#N)cc2)c1 | 3.37%
